Assays:
Abl(T315I) = biological target: T1, Abl(T315I) (Homo sapiens, UniProt P00519, T315I); assay: Abl(T315I) kinase activity assay, Kinase-Glo Plus luminescence (BPS Biosciences); assay type: biochemical; settings: 10 μM ATP
T1 construct: purchased BPS Biosciences (named as the lab that ran the assay)
Procedure: (§1) Assay was conducted by BPS Biosciences, 6405 Mira Mesa Blvd. Suite 100. San Diego, Calif. 92121. United States
(§2) • The assay was performed using Kinase-Glo Plus luminescence kinase assay kit (Promega). It measures kinase activity by quantitating the amount of ATP remaining in solution following a kinase reaction. The luminescent signal from the assay is correlated with the amount of ATP present and is inversely correlated with the amount of kinase activity. • The testing compounds were diluted in 10% DMSO and 5 μl of the dilution was added to a 50 μl reaction so that the final concentration of DMSO is 1% in all of reactions. All of the enzymatic reactions were conducted at 30° C. for 45 minutes. The 50 μl reaction mixture contains 40 mM Tris, pH 7.4, 10 mM MgCl2, 0.1 mg/ml BSA, 1 mM DTT, 10 μM ATP, Kinase substrate and the enzyme. After the enzymatic reaction, 50 μl of Kinase-Glo Plus Luminescence kinase assay solution (Promega) was added to each reaction and incubated on the plate for 15 minutes, at room temperature. Luminescence signal was measured using a BioTek Synergy 2 microplate reader.
(§3) • Kinase activity assays were performed in duplicate at each concentration. The luminescence data were analyzed using the computer software, Graphpad Prism. The difference between luminescence intensities in the absence of Kinase (Lut) and in the presence of Kinase (Luc) was defined as 100% activity (Lut−Luc). Using luminescence signal (Lu) in the presence of the compound, % activity was calculated as: • % activity={(Lut−Lu)/(Lut−Luc)}×100%, where Lu=the luminescence intensity in the presence of the compound. The values of % activity versus a series of compound concentrations were then plotted using non-linear regression analysis of Sigmoidal dose-response curve generated with the equation Y=B+(T−B)/1+10 ((LogEC50−X)×Hill Slope), where Y=percent activity, B=minimum percent activity, T=maximum percent activity, X=logarithm of compound and Hill Slope=slope factor or Hill coefficient. The IC 50 value was determined by the concentration causing a half-maximal percent activity.

ABL (WT) = biological target: T2, ABL (WT) (Homo sapiens, UniProt P00519); assay: Abl kinase activity assay, Kinase-Glo Plus luminescence (BPS Biosciences); assay type: biochemical; settings: 10 μM ATP
T2 construct: purchased BPS Biosciences (named as the lab that ran the assay)
Procedure: as §1, §2, §3

[1] = 10 nM compound, read-out: % Inhibition of Compound 55 @10 nM
[2] = 100 nM compound, read-out: % Inhibition of Compound 55 @100 nM

inhibition at 0.01 µM (Abl(T315I); [1]): > 10% | inhibition at 0.1 µM (Abl(T315I); [2]): > 25% | IC50 (Abl(T315I); read-out: IC-50 of Compound 55): < 0.5 µM | inhibition at 0.01 µM (ABL (WT); [1]): > 10% | inhibition at 0.1 µM (ABL (WT); [2]): > 25% | IC50 (ABL (WT); read-out: IC-50 of Compound 55): < 0.5 µM
Structure (SMILES): Cc1ccc(C(=O)Nc2ccc(CN3CCN(C)CC3)c(C(F)(F)F)c2)cc1C12CC(c3cnc4cccnn34)(C1)C2 [Compound 55, 3-(3-(imidazo[1,2-b]pyridazin-3-yl)bicyclo[1.1.1]pentan-1-yl)-4-methyl-N-(4-((4-methylpiperazin-1-yl)methyl)-3-(trifluoromethyl)phenyl)benzamide]
